{"source": "patent US10059669B2", "about": "“2-amino-3,5-difluoro-3,6-dimethyl-6-phenyl-3,4,5,6-tetrahydropyridines as BACE1 inhibitors for treating alzheimer's disease” (H. Lundbeck A/S, priority 2014, dated 2018)", "key": {"[1]": {"tested_on": "P-gp (MDR1)", "experiment": "MDCK-MDR1 assay (permeability, efflux ratio)", "type": "in vitro ADME", "conditions": "dog, Papp BA/Papp AB, 60-minute incubation, Pgp substrate when ≥2", "procedure": "The permeability of the test compounds was assessed in MDCK-MDR1 cells that were cultured to confluency (4-6 days) in a 96 transwell plate. Test compounds were diluted with the transport buffer (HBSS+1% BSA) to a concentration of 0.5 μM and applied to the apical or basolateral side of the cell monolayer. Permeation of the test compounds from A to B direction or B to A direction was determined in triplicate over a 60-minute incubation time at 37° C. and 5% CO2 with a relative humidity of 95%. Test compounds were quantified by LC-MS/MS analysis based on the peaks area ratios of analyte/IS in both the receiver and donor wells of the transwell plate.\nThe apparent permeability coefficient Papp (cm/s) was calculated using the equation: Papp=(dCr/dt)×Vr/(A×C0)\nWhere dCr/dt is the cumulative concentration of compound in the receiver chamber as a function of time (M/s); Vr is the solution volume in the receiver chamber (0.05 mL on the apical side; 0.25 mL on the basolateral side); A is the surface area for the transport, i.e. 0.0804 cm^2 for the area of the monolayer; C0 is the initial concentration in the donor chamber (VIM).\nCompounds are classified Pgp substrates when efflux ratio (Papp BA/Papp AB) is ≥2."}, "[2]": {"target": "T1, BACE1 (Homo sapiens (Human), UniProt P56817)", "T1 sequence (P56817 46-501)": "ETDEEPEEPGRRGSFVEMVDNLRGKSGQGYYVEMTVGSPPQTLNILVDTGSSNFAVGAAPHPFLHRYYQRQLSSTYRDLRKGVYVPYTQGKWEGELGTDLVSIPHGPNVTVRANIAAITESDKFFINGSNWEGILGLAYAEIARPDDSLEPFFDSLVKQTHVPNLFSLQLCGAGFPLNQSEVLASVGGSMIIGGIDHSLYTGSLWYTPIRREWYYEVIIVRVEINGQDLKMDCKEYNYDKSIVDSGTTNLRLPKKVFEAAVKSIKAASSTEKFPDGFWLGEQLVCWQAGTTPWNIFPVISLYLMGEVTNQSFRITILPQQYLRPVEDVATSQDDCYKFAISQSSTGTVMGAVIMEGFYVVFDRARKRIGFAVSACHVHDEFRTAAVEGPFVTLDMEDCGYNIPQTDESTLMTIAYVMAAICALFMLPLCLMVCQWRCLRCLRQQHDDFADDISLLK", "experiment": "BACE1 efficacy assay (FRET-based, commercial BACE1 kit)", "type": "biochemical", "conditions": "10 μM test compound", "procedure": "The efficacy assay was performed as a FRET-based assay using a commercially available BACE1 kit (Life Technologies, P2985). 2 μl test compound at 10 μM (final concentration) and 15 μl BACE1 enzyme from the kit (final concentration 3 nM) were preincubated for 15 minutes at room temperature before addition of 15 μl of substrate from the kit (250 nM final concentration) and incubated for additional 90 minutes at room temperature. The assay plate was subsequently read in a Pherastar (Ex540/Em590). The enzyme activity observed in presence of test compound were normalized to the enzyme activity observed in presence of buffer and 10 μM (final concentration) of the high affinity BACE1 reference inhibitor (S)-6-[3-Chloro-5-(5-prop-1-ynyl-pyridin-3-yl)-thiophen-2-yl]-2-imino-3,6-dimethyl-tetra-hydropyrimidin-4-one, respectively. The efficacy of the test compounds was evaluated at 10 μM (final concentration) and defined as the percent inhibition of the enzyme activity using the equation % inhibition=100%−normalized enzyme activity in percent."}, "[3]": {"target": "T1, BACE1", "experiment": "BACE1 binding assay (SPA-based radioligand binding)", "conditions": "pH 4.5, 10 nM radioligand, Ki calculated from IC50", "procedure": "The binding assay was performed as SPA-based assay using a biotinylated form of human BACE1 recombinantly expressed and subsequently purified from Freestyle HEK293 cells. The binding assay was run in a 50 mM sodium acetate buffer, pH 4.5 containing 50 mM NaCl and 0.03% Tween-20 in white clear bottom 384 plates (Corning #3653). 10 nM (final concentration) radioligand ([^3H]—N-((1S,2R)-1-benzyl-3-cyclopropylamino-2-hydroxy-propyl)-5-(methanesulfonyl-methyl-amino)-N—((R)-1-phenyl-ethyl)-isophthalamide) (TRQ11569 purchased from GE Healthcare) was mixed with test compound at a given concentration, 6 nM (final concentration) human BACE1 and 25 μg Streptavidin coated PVT core SPA beads (RPNQ0007, GE Healthcare Life Sciences) in a total volume of 40 μl. Several concentrations of each test compound were tested in the assay for IC50 determination. The plates were incubated for one hour at room temperature and counted in a Wallac Trilux counter. Total and non-specific binding were determined using buffer and 1 μM (final concentration) of the high affinity BACE1 reference inhibitor (S)-6-[3-chloro-5-(5-prop-1-ynyl-pyridin-3-yl)-thiophen-2-yl]-2-imino-3,6-dimethyl-tetrahydro-pyrimidin-4-one, respectively. For each test compound, a IC50 value (the concentration mediating 50% inhibition of the specific binding of the radioligand) was determined from concentration-response curve and used to calculate the Ki from the equation Ki=IC50/(1+L/Kd), where L and Kd are the final concentration of the radioligand used in the assay and the dissociation constant of the radioligand, respectively. The Kd of the radioligand was determined from saturation binding experiments."}}, "data": [{"smiles": "Cc1cc(C#N)cnc1C(=O)Nc1ccc(F)c([C@@]2(C)N=C(N)[C@@](C)(F)C[C@@H]2F)c1", "note": "[Compound 21, N-(3-((2R,3S,5S)-6-amino-3,5-difluoro-2,5-dimethyl-2,3,4,5-tetrahydropyridin-2-yl)-4-fluorophenyl)-5-cyano-3-methylpicolinamide]", "values": [{"measurement": "efflux ratio at 60 min, 0.5 μM", "setting": "[1]", "result": 1.15}, {"measurement": "inhibition at 10 µM", "setting": "[2]", "result": 117, "unit": "%"}, {"measurement": "Ki", "setting": "[3]", "result": 4.1, "unit": "nM"}]}, {"smiles": "[2H]C([2H])([2H])Oc1ccc(C(=O)Nc2cc(F)c(F)c([C@@]3(C)N=C(N)[C@@](C)(F)C[C@@H]3F)c2)nc1", "note": "[Compound 22, N-(3-((2R,3S,5S)-6-amino-3,5-difluoro-2,5-dimethyl-2,3,4,5-tetrahydropyridin-2-yl)-4,5-difluorophenyl)-5-(methoxy-d3)picolinamide]", "values": [{"measurement": "efflux ratio at 60 min, 0.5 μM", "setting": "[1]", "result": 0.52}, {"measurement": "inhibition at 10 µM", "setting": "[2]", "result": 101, "unit": "%"}, {"measurement": "Ki", "setting": "[3]", "result": 3.6, "unit": "nM"}]}, {"smiles": "[2H]C([2H])([2H])Oc1ccc(C(=O)Nc2ccc(F)c([C@@]3(C)N=C(N)[C@@](C)(F)C[C@H]3F)c2)nc1", "note": "[Compound 23, N-(3-((2R,3R,5S)-6-amino-3,5-difluoro-2,5-dimethyl-2,3,4,5-tetrahydropyridin-2-yl)-4-fluorophenyl)-5-(methoxy-d3)picolinamide]", "values": [{"measurement": "efflux ratio at 60 min, 0.5 μM", "setting": "[1]", "result": 0.95}, {"measurement": "inhibition at 10 µM", "setting": "[2]", "result": 107, "unit": "%"}, {"measurement": "Ki", "setting": "[3]", "result": 81, "unit": "nM"}]}]}
